Assay [1] deals with HT-29 human colon cancer tumors. The experiment in a line: HT-29 tumors growing in nude mice. It counts as in vivo. The settings on record: 100 ng/mouse intraperitoneally 3 days a week, vs diluant control. The procedure:
HT-29 cells were bilaterally injected subcutaneously into nude mice, forming two tumors per mouse. The mice were divided randomly into control and experimental groups. […] In FIG. 5A, tumor volumes were measured every week. The mean volume±SD of 10 tumors in each group is shown. […] In FIG. 5B, After 4 weeks of therapy, tumors were removed from each group and weighed. […] For the mouse studies, BNX nu/nu nude mice at 8 weeks of age were purchased from Harlan Sprangue Dawley, Inc. (Indianapolis, Ind.) and their care was in accord with the guidelines of Cedars-Sinai Research Institute. They were maintained in pathogen-free conditions with irradiated chow. […] The mice were blindly randomized to the experimental and control groups. Treatment was started on the day after the injection of […] cells and continued for 6 weeks. […] Tumor sizes were measured every week and calculated by the formula: A (length)×B (width)×C (height)×0.5236. […] All mice were euthanized at the end of the study, and the tumors were fixed in 10% neutral buffered formalin and embedded in paraffin for histological analysis. The data were analyzed by Student's t test.

Another assay relates to HT-29 colon cancer cells. As to the kind of experiment: MTT assay. The format is cell-based, human. The settings on record: 10^−7M, 96 hrs. As for the experimental part: (§1) HT-29, SW837, SW480 and HCT116 colon cancer cells were treated for 96 hrs with either paricalcitol (10^−7M) 1,25(OH)2D3 (10^−7M) or diluant (control). Growth (% of control) was measured by MTT assay. Results represent the mean±SD of three independent experiments with triplicate dishes. […] were incubated in culture medium for 96 hr in 96 well-plates and […] of MTT solution was added.
In general terms: Formazan colour is commonly taken as a measure of viable cells.

The test system of the next assay is SW480 colon cancer cells. As to the kind of experiment: MTT assay. It counts as cell-based, human. The settings on record: 10^−7M, 96 hrs. The procedure: as §1
Another assay has as its system SW837 colon cancer cells. As to the kind of experiment: MTT assay. The settings on record: 10^−7M, 96 hrs. It counts as cell-based, human. The procedure:
as §1

Assay [2] has as its system HCT116 colon cancer cells. The experiment in a line: MTT assay. The format is cell-based, human. The settings on record: 10^−7M, 96 hrs. As for the experimental part: as §1
Another assay relates to RPMI-8226 myeloma cells. The settings on record: 4 days exposure.
In another assay the test system is NCI-H929 cells. As to the kind of experiment: Soft agar colony assay (clonal proliferation). The settings on record: Homo sapiens, 336 h, colonies counted after 14 days, read-out: concentration that caused 50% inhibition (ED50) of clonal growth. The format is cell-based. As for the experimental part: (§2) A soft agar colony assay was used to test the effect of paricalcitol and 1,25(OH)2D3 on various cancer cell lines. For the soft agar colony assay, trypsinized and washed single-cell suspensions of cells were enumerated and plated into 24 well flat bottom plates using a two-layer soft agar system with a total of 1×10^3 cells/well in a volume of […], as described previously (Kubota et al., supra, 1998).
(§3) Cell lines used in this study were obtained from American Type Culture Collection (Rockville, Md.) and were maintained according to their recommendations. Myeloid leukemia cell lines (HL-60, NB-4, THP-1, U937), lymphoma cell lines (Raji, Ramos, Daudi, Jurkat, Jeko-1, JUDHL) and myeloma cell lines (RPMI-8226, ARH-77, NCI-H929) were grown in RPMI 1640 with 10% FCS. Breast cancer cell lines (MCF-7, MDA-MB-231), brain cancer cell lines (U343, U118, U138, U373, U87), and colon cancer cell lines (HT-29, SW837, SW480, SW620, HCT116) were maintained in DMEM with 10% FCS. Endometrial carcinoma cell line, AN-3 was maintained in Alpha Minimum Essential Medium (a-MEM) with 10% FCS.

A further assay relates to HT-29 cells. The experiment in a line: Soft agar colony assay (clonal proliferation). It counts as cell-based. The settings on record: Homo sapiens, 336 h, colonies counted after 14 days, read-out: concentration that caused 50% inhibition (ED50) of clonal growth. As for the experimental part: as §2, §3
The subject of another assay is NB-4 cells. The experiment in a line: Soft agar colony assay (clonal proliferation). The format is cell-based. The settings on record: Homo sapiens, 336 h, colonies counted after 14 days, read-out: concentration that caused 50% inhibition (ED50) of clonal growth. The procedure:
as §2, §3

The test system of the next assay is SW837. The experiment in a line: Soft agar colony assay (clonal proliferation). It counts as cell-based. The settings on record: Homo sapiens, 336 h, colonies counted after 14 days, read-out: concentration that caused 50% inhibition (ED50) of clonal growth. As for the experimental part:
as §2, §3

In a further assay the test system is HL-60 cells. The experiment in a line: Soft agar colony assay (clonal proliferation). The format is cell-based. The settings on record: Homo sapiens, 336 h, colonies counted after 14 days, read-out: concentration that caused 50% inhibition (ED50) of clonal growth. As for the experimental part: as §2, §3
Another assay has as its system THP-1. The experiment in a line: Soft agar colony assay (clonal proliferation). It counts as cell-based. The settings on record: Homo sapiens, 336 h, colonies counted after 14 days, read-out: concentration that caused 50% inhibition (ED50) of clonal growth. The procedure:
as §2, §3

The next assay deals with SW837 cells. The experiment in a line: Western blot of cell lysates. It counts as cell-based, human. The settings on record: 10^−7M, 72 hrs. As for the experimental part:
Western blot analysis was used to determine the levels of proteins involved in cell cycle and differentiation. […] After centrifugation at 15,000×g for 15 min at 4° C., the suspension was collected. Protein concentrations were quantitated using the Bio-Rad assay (Bio-Rad Labolatories, Hercules, Calif.). […] The blots were developed using the Supersignal West Pico Chemiluminescent Substrate Kit (Pierce, Rockford, Ill.). In FIG. 4C, HT-29 and SW837 cells were cultured with either paricalcitol (10^−7M) or 1,25(OH)2D3 (10^−7M) for 72 hrs. Cell lysates were prepared and analyzed by Western blot which was probed sequentially with antibodies to COX-1 and COX-2 (Santa Cruz Biotechnology). Control cells were treated with vehicle alone. The amount of protein was normalized by comparison to the quantity of GAPDH.
Background: A western blot detects proteins with antibodies after separation by electrophoresis.

The results in this text go back to patent US20050054620A1, “Paricalcitol as a chemotherapeutic agent” (priority 2003, published 2005).

Molecules are shown by their SMILES.

Regarding `C[C@H](/C=C/[C@H](C)C(C)(C)O)[C@H]1CC[C@H]2/C(=C/C=C3C[C@@H](O)C[C@H](O)C3)CCC[C@]12C` [paricalcitol, 19-nor-1,25, (OH)2D3], the mean tumor weights entry in assay [1] (after 4 weeks, p=0.0004) is given as “significantly suppressed”. For the same compound, in [1] (p=0.03), the “growth of colon cancer tumors (tumor volumes)” value is reported as “significantly suppressed”. In addition, the “growth by MTT assay” value is “sensitive” in the assay with HT-29 colon cancer cells, “either only slightly sensitive or resistant” in the assay with SW480 colon cancer cells, “sensitive” in the assay with SW837 colon cancer cells and “either only slightly sensitive or resistant” in assay [2]. The antiproliferative effect entry with RPMI-8226 myeloma cells was “somewhat less than the effect on NCI-H929 cells”. Moreover, the EC50 was 0.02 nM in the assay on NCI-H929 cells; 17 nM in the assay with HT-29 cells; 3.4 nM in the assay with NB-4 cells; 46 nM in the assay with SW837; 2.4 nM with HL-60 cells; 5.8 nM in the assay on THP-1. Also, the “decrease of COX-2 expression” value in the assay with SW837 cells is recorded as 40%. Besides, in the assay on SW837 cells, the “effect on COX-1 expression” value is recorded as “without affecting”.
